Experimental data: patent publication US20240279232A1, “USE OF SUBSTITUTED 5-(4-METHYL-6-PHENYL-4H-BENZO[F]IMIDAZO[1,5-A][1,4] DIAZEPIN-3-YL)-1,2,4-O[…] THE TREATMENT OF INFLAMMATORY CONDITIONS” (priority 2021, published 2024)

Columns and labels:
[1] = system: Mouse microglia; experiment: Cell viability (CellTiter-Glo), mouse microglia; format: cell-based; conditions: 50 μM; for Cell viability (%) Mouse microglia 50 μM: CellTiter-Glo; for toxicity at 50 μM (in words): microglia
In short: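 Mouse microglia (1×10^6 cells/mL) activated with 50 ng/ml LPS plus 150 U/mL IFNγ, incubated with compounds ~24 h at 37° C. Viability of remaining cells read by CellTiter-Glo luminescence after supernatant removal for Griess NO assay; […].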

[2] = system: BZR (benzodiazepine site of GABAAR); experiment: GABAAR/BZR binding, rat brain homogenate with 3H-flunitrazepam; conditions: for BZR %: Percent inhibition at 10,000 nM
In short: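 Rat brain homogenate incubated with 3H-flunitrazepam near its Kd, typically 90 min at room temperature in the dark; nonspecific binding defined with 10 μM reference compound. Filtration on PEI-soaked mats, scintillation counting; compounds screened at 10,000 nM, those above 50% displacement taken to concentration–response for Ki by nonlinear regression (n=6).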

[3] = molecular target: T1, MOR (μ opioid receptor) (Homo sapiens, UniProt P35372); experiment: MOR radioligand binding ([3H]-DAMGO, HEK293 cell homogenates); conditions: for inhibition at 10 µM: Percent inhibition at 10,000 nM, [3H]-DAMGO
T1 construct: expressed in transfected cells; host or cells: HEK293
T1 sequence (P35372 whole entry, species assumed): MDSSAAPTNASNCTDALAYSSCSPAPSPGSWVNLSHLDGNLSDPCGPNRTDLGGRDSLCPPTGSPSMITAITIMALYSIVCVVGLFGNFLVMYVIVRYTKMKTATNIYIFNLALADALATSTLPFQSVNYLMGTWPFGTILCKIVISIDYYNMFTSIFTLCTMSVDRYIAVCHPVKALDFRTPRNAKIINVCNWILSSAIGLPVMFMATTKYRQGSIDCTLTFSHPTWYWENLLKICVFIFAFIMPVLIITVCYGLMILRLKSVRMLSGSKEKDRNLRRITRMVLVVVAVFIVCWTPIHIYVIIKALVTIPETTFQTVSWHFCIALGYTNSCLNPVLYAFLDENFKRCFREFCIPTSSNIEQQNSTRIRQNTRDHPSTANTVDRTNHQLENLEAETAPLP

[4] = system: RAW macrophages; experiment: Cell viability (CellTiter-Glo), RAW macrophages; format: cell-based, mouse; conditions: for Cell viability (%) RAW macrophages 50 μM: CellTiter-Glo; for toxicity at 50 μM (in words): macrophages
[5] = system: Mouse microglia; experiment: NO production (Griess assay), LPS/IFNγ-activated mouse microglia; format: cell-based; conditions: for inhibition at 10 µM / inhibition at 50 µM: Mus musculus, Microglia, 24 h
[6] = molecular target: T2, DOR (δ opioid receptor) (Homo sapiens, UniProt P41143); experiment: DOR radioligand binding ([3H]-DADLE, HEK293 cell homogenates); conditions: for inhibition at 10 µM: Percent inhibition at 10,000 nM, [3H]-DADLE
T2 construct: expressed in transfected cells; host or cells: HEK293
T2 sequence (P41143 whole entry): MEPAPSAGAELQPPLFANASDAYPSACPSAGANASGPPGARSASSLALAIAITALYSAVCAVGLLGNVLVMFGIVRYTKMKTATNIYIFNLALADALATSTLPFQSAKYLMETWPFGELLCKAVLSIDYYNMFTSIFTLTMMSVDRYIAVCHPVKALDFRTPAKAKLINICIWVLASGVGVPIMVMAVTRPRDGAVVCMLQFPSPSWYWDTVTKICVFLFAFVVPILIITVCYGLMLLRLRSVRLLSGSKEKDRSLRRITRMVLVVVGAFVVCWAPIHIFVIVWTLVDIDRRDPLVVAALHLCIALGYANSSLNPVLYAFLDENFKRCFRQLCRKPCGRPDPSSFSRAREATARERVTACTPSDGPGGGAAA

[7] = rat brain homogenate, 3H-flunitrazepam

Compound	Cell viability (%) Mouse microglia 50 μM [1] [%]	BZR % [2, 7] [%]	Ki [2, 7] [nM]	inhibition at 10 µM [3] [%]	Cell viability (%) RAW macrophages 50 μM [4] [%]	inhibition at 10 µM [5] [%]	inhibition at 10 µM [6] [%]	inhibition at 50 µM [5] [%]	toxicity at 50 μM (in words) [1]	toxicity at 50 μM (in words) [4]	Percent Competition BZP Rat Brain Site ([2]; PDSP primary screening) [%]	IC50 ([2]; rat brain homogenate, 3H-flunitrazepam, read-out: affinity for the benzodiazepine site of GABAARs (IC50)) [nM]	Percent Competition MOR ([3]; PDSP primary screening) [%]	NO production of activated microglia (in words) ([5]; dexamethasone 100 nM, GABA 1 μM, MP-IV-010 50 μM, GL-II-33 in the library screen)	Percent Competition DOR ([6]; PDSP primary screening) [%]
CCOC(=O)c1ncn2c1[C@@H](C)N=C(c1ccccn1)c1cc(Br)ccc1-2 [GL-II-06]	87 ± 13	81	556	11	100 ± 10	14 ± 3	9								
C[C@H]1N=C(c2ccccn2)c2cc(Br)ccc2-n2cnc(C(=O)O)c21 [GL-II-51]	95 ± 2	84	181	0	100 ± 3	9 ± 4	0								
C[C@H]1N=C(c2ccccc2F)c2cc(Br)ccc2-n2cnc(-c3cnco3)c21 [GL-III-36]	97 ± 9	86	319	0	81 ± 5	8 ± 5	12	41 ± 7							
CCOC(=O)c1ncn2c1[C@@H](C)N=C(c1ccccc1F)c1cc(C3CC3)ccc1-2 [GL-III-42]	82 ± 10	62	726	0	100 ± 6	55 ± 12	13								
C[C@H]1N=C(c2ccccc2F)c2cc(Cl)ccc2-n2cnc(C(=O)O)c21 [GL-III-54]	82 ± 6	100	42	0	99 ± 12	31 ± 9	0								
Cc1noc(-c2ncn3c2[C@@H](C)N=C(c2ccccc2F)c2cc(Br)ccc2-3)n1 [GL-III-60, (R)-5-(8-Bromo-6-(2-fluorophenyl)-4-methyl-4H-benzo[f]imidazo[1,5-a][1,4]diazepin-3-yl)-3-methyl-1,2,4-oxadiazole]	100 ± 9	100	784	26	86 ± 12	55 ± 8	18	68 ± 8							
Cc1noc(-c2ncn3c2[C@@H](C)N=C(c2ccccc2F)c2cc(C4CC4)ccc2-3)n1 [GL-III-63, (R)-5-(8-Cyclopropyl-6-(2-fluorophenyl)-4-methyl-4H-benzo[f]imidazo[1,5-a][1,4]diazepin-3-yl)-3-methyl-1,2,4-oxadiazole]	100 ± 8	28		8	87 ± 15	25 ± 4	31	89 ± 12							
C#Cc1ccc2c(c1)C(c1ccccc1F)=N[C@H](C)c1c(C(=O)NC(C)C)ncn1-2 [GL-III-66]	85 ± 15	88	271	0	100 ± 9	13 ± 2	0								
CCNC(=O)c1ncn2c1[C@@H](C)N=C(c1ccccc1F)c1cc(C3CC3)ccc1-2 [GL-III-68]	83 ± 3	100	452	0	100 ± 8	24 ± 5	10								
C[C@H]1N=C(c2ccccc2F)c2cc(Br)ccc2-n2cnc(C(=O)N(C)C)c21 [GL-III-69]	87 ± 6	100	446	0	98 ± 10	37 ± 6	10								
C[C@H]1N=C(c2ccccc2F)c2cc(C3CC3)ccc2-n2cnc(C(=O)N(C)C)c21 [GL-III-70]	86 ± 2	100	3400	0	100 ± 2	32 ± 4	50								
C#Cc1ccc2c(c1)C(c1ccccc1F)=N[C@H](C)c1c(-c3cnco3)ncn1-2 [GL-III-73]	80 ± 9	65	602	12	100 ± 4	40 ± 3	4								
C[C@@H]1N=C(c2ccccc2F)c2cc(Br)ccc2-n2cnc(-c3cnco3)c21 [GL-III-76]	80 ± 2	100	120	3	100 ± 5	34 ± 1	0								
C#Cc1ccc2c(c1)C(c1ccccc1F)=N[C@@H](C)c1c(-c3cnco3)ncn1-2 [GL-III-78]	79 ± 6	101	26	10	97 ± 2	39 ± 5	9								
CCc1noc(-c2ncn3c2[C@@H](C)N=C(c2ccccc2F)c2cc(C4CC4)ccc2-3)n1 [GL-IV-03, (R)-5-(8-Cyclopropyl-6-(2-fluorophenyl)-4-methyl-4H-benzo[f]imidazo[1,5-a][1,4]diazepin-3-yl)-3-ethyl-1,2,4-oxadiazole]	100 ± 5	65		25	97 ± 7	90	67		no significant toxicity	no significant toxicity					
C#Cc1ccc2c(c1)C(c1ccccc1F)=N[C@H](C)c1c(C(=O)NC)ncn1-2 [MP-III-022]	86 ± 2	95	83	3	100 ± 11	36 ± 6	22	60 ± 12							
C#Cc1ccc2c(c1)C(c1ccccc1F)=N[C@H](C)c1c(-c3nc(C)no3)ncn1-2 [MP-IV-004]	100 ± 5	63	1080	7	83 ± 12	34 ± 5	10	60 ± 6							
C#Cc1ccc2c(c1)C(c1ccccc1F)=N[C@H](C)c1c(-c3nc(C(C)C)no3)ncn1-2 [MP-IV-010, (R)-5-(8-ethynyl-6-(2-fluorophenyl)-4-methyl-4H-benzo[f]imidazo[1,5-a][1,4]diazepin-3-yl)-3-isopropyl-1,2,4-oxadiazole]	91 ± 10	64	814	33	81 ± 10	66 ± 13	5	96 ± 13	no significant toxicity	no significant toxicity	64	2500	33	significant reduction	5
